Where two headings read alike, the source gives them in different places.
Legend:
[1] = tested on: Cullin-3 (CUL3) neddylation; experiment: AlphaLISA assay for Cullin-3 (CUL3) neddylation in TF 1 cells; assay type: cell-based; settings: 3 hours treatment
Outline: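 Neddylated CUL3 was quantified by AlphaLISA in lysates of TF 1 cells exposed for 3 h to test compound in IMDM without supplements. Percent inhibition set between vehicle and 1 μM DI-1548 positive control; IC50 derived by Hill-equation fitting of dose-response curves.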

[2] = target: DCN1 (DCUND1) protein PONY domain (Homo sapiens (Human), UniProt Q96GG9); experiment: TR-FRET assay, DCN1 binding with FAM-labeled probe
Outline: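 TR-FRET ratio (Tb-DCN1 to FAM-probe) read at 1, 5 and 24 hrs after compound addition. Protein: recombinant PONY domain from E. coli, biotinylated and coupled to streptavidin terbium. Either 5 nM DCN1 with 20 nM FAM-probe, or 0.31 nM DCN1 with 100 nM FAM-labelled plus 800 nM unlabelled probe.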

[3] = 24 hr after treatment with compound, read-out: TR FRET IC50 24 hr
[4] = TR FRET IC50 1 hr (nM), 1 hr after treatment with compound
[5] = read-out: TR FRET IC50 1 hr, 1 hr after treatment with compound

Sequence of DCN1 (DCUND1) protein PONY domain (Q96GG9 60-248): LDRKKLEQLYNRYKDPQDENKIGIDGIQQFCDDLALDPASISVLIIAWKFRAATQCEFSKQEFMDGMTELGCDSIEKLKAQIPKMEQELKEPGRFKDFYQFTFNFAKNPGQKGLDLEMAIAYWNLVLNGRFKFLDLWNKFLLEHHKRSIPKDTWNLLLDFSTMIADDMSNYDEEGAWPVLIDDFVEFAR

Row | SMILES | IC50 ([1]; Homo sapiens, TF-1, 3 h) [nM] | IC50 [2, 3] [nM] | IC50 [2, 4] [nM] | IC50 [2, 5] [nM] | IC50 [1] [nM]
1 | CCN1C(=O)[C@@H](NC(=O)c2cccc(C(F)(F)F)c2)[C@@H](c2ccc(F)cc2)c2c(C(=O)N3CCC[C@H]3C#N)nn(-c3cccc(OCCCN4CC5(COC5)C4)c3)c21 (stereo in doubt) [Compound I-615] | > 1000 | 200 to 1000 | 1000 to 3000 |  | 
2 | CCN1C(=O)[C@@H](NC(=O)c2cccc(C(F)(F)F)c2)[C@@H](c2ccc(F)cc2)c2c([C@@H](C)N(C#N)CCCN(C)C)nn(-c3ccccc3)c21 [Compound I-578, N-((4S,5S)-3-((R)-1-(N-(3-(dimethylamino)propyl)cyanamido)ethyl)-7-ethyl-4-(4-fluorophenyl)-6-oxo-1-phenyl-4,5,6,7-tetrahydro-1H-pyrazolo[3,4-b]pyridin-5-yl)-3-(trifluoromethyl)benzamide] | 100 to 1000 | 1000 to 3000 | 1000 to 3000 |  | 
3 | CCN1C(=O)[C@@H](NC(=O)c2cccc(C(F)(F)F)c2)[C@@H](C2CC2)c2c(C(=O)N3[C@H](C#N)C[C@@H]4C[C@@H]43)nn(C3CCOCC3)c21 [Compound I-441] | > 1000 | 200 to 1000 | 1000 to 3000 |  | 
4 | CCN1C(=O)[C@@H](NC(=O)c2cccc(C(F)(F)F)c2)[C@@H](C2CC2)c2c(C(=O)N3[C@H](C#N)C[C@H]4C[C@H]43)nn(C(C)(C)C)c21 (mixture of isomers) [Compound I-517] | 100 to 1000 | 200 to 1000 | 1000 to 3000 |  | 
5 | CCN1C(=O)[C@@H](NC(=O)c2cccc(C(F)(F)F)c2)[C@@H](C2CC2)c2c(C(=O)N(CC#N)C3CC3)nn(C3CC3)c21 [Compound I-702] | 100 to 1000 | 200 to 1000 | 1000 to 3000 |  | 
6 | C=C(CN1CCC(C)(O)C1)C(=O)NCc1nn(-c2ccccc2)c2c1[C@H](c1ccc(F)cc1)[C@H](NC(=O)c1cccc(C(F)(F)F)c1)C(=O)N2CC (stereo partly drawn) [Compound I-25] | ≤ 100 | ≤ 200 |  | ≤ 200 | 
7 | CCN1C(=O)[C@@H](NC(=O)c2cccc(C(F)(F)F)c2)[C@@H](c2ccc(F)cc2)c2c(C(=O)N3[C@H](C)CC[C@H]3C#N)nn(C3CCOCC3)c21 [Compound I-416] | 100 to 1000 | 200 to 1000 | 1000 to 3000 |  | 
8 | CCN1C(=O)[C@@H](NC(=O)c2cccc(C(F)(F)F)c2)[C@@H](C2CC2)c2c(C(=O)N3[C@@H]4C[C@@H]4C[C@@H]3C#N)nn(C3CCOCC3)c21 [Compound I-442] | > 1000 | 200 to 1000 | 1000 to 3000 |  | 
9 | CCN1C(=O)[C@H](NC(=O)c2cccc(C(F)(F)F)c2)[C@H](c2ccc(F)cc2)c2c(C(=O)N3CCC[C@H]3C#N)nn(-c3cccc(OCCCN4CCOCC4)c3)c21 [Compound I-544] | > 1000 | 1000 to 3000 | 1000 to 3000 |  | 
10 | CCN1C(=O)[C@@H](NC(=O)c2cccc(C(F)(F)F)c2)[C@@H](c2ccc(F)cc2)c2c([C@@H](CO)NC#N)nn(-c3ccccc3)c21 [Compound I-487] | 100 to 1000 | ≤ 200 | 200 to 1000 |  | 
11 | CCN1C(=O)[C@H](NC(=O)c2cccc(C(F)(F)F)c2)[C@H](c2ccc(F)cc2)c2c(C(=O)N3CCNC[C@H]3C#N)nn(-c3ccccc3)c21 [Compound I-453] | > 1000 | 200 to 1000 | 1000 to 3000 |  | 
12 | CCN1C(=O)[C@H](NC(=O)c2cccc(C(F)(F)F)c2)[C@@H](c2ccc(F)cc2)c2c(COCC#N)nn(-c3ccccc3)c21 [Compound I-522] | > 1000 | 1000 to 3000 | 1000 to 3000 |  | 
13 | CCN1C(=O)[C@H](NC(=O)c2cccc(C(F)(F)F)c2)[C@H](c2ccc(F)cc2)c2c(C(=O)N3CCC[C@H]3C#N)nn(C3CC3)c21 [Compound I-558] | > 1000 | 1000 to 3000 | 1000 to 3000 |  | 
14 | CCN1C(=O)[C@H](NC(=O)c2cccc(C(F)(F)F)c2)[C@H](C2CC2)c2c(C(=O)N(C)C(C)C#N)nn(-c3ccccc3)c21 (stereo partly drawn) [Compound I-676] | > 1000 | 1000 to 3000 | 1000 to 3000 |  | 
15 | CCN1C(=O)[C@@H](NC(=O)c2ccn(C(F)(F)F)n2)[C@@H](c2ccc(F)cc2)c2c(C(=O)N3CCN(C)CC3C#N)nn(-c3ccccc3)c21 (stereo partly drawn) [Compound I-684, N-((4S,5S)-3-(2-cyano-4-methylpiperazine-1-carbonyl)-7-ethyl-4-(4-fluorophenyl)-6-oxo-1-phenyl-4,5,6,7-tetrahydro-1H-pyrazolo[3,4-b]pyridin-5-yl)-1-(trifluoromethyl)-1H-pyrazole-3-carboxamide] | ≤ 100 | ≤ 200 |  | ≤ 200 | 
16 | CCN1C(=O)[C@H](NC(=O)c2cccc(C(F)(F)F)c2)[C@H](c2ccc(F)cc2)c2c([C@@H](C)NC#N)nn(C3CCOCC3)c21 [Compound I-597] | > 1000 | 1000 to 3000 | 1000 to 3000 |  | 

Row | SMILES | IC50 ([1]; Homo sapiens, TF-1, 3 h) [nM] | IC50 [2, 3] [nM] | IC50 [2, 4] [nM] | IC50 [2, 5] [nM] | IC50 [1] [nM]
17 | CCN1C(=O)[C@@H](NC(=O)c2cccc(C(F)(F)F)c2)[C@@H](c2ccc(F)cc2)c2c(NC(=O)C3=CCCN(C)C3)nn(-c3ccccc3)c21 (racemic) [Compound I-488] | ≤ 100 | ≤ 200 | 200 to 1000 |  | 
18 | CCN(CC#N)C(=O)c1nn(-c2ccccc2)c2c1[C@@H](c1ccc(F)cc1)[C@@H](NC(=O)c1cccc(C(F)(F)F)c1)C(=O)N2CC (stereo in doubt) [Compound I-531] | 100 to 1000 | ≤ 200 | 1000 to 3000 |  | 
19 | CCN1C(=O)[C@@H](NC(=O)c2cccc(C(F)(F)F)c2)[C@@H](C2CCCC2)c2c(C(=O)N3CCC[C@H]3C#N)nn(C3CCOCC3)c21 [Compound I-469] | ≤ 100 | ≤ 200 | 1000 to 3000 |  | 
20 | CCN1C(=O)[C@@H](NC(=O)c2ccc3[nH]cnc3c2)[C@@H](C2CC2)c2c(C(=O)N3[C@H](C#N)C[C@H]4C[C@H]43)nn(C3CCOCC3)c21 [Compound I-632] | > 1000 | 1000 to 3000 | 1000 to 3000 |  | 
21 | CCN1C(=O)[C@H](NC(=O)c2cccc(C(F)(F)F)c2)[C@H](c2ccc(F)cc2)c2c([C@H](C)NC#N)nn(-c3ccccc3)c21 [Compound I-410] | 100 to 1000 | 200 to 1000 | 1000 to 3000 |  | 
22 | CCN1C(=O)[C@@H](NC(=O)N2CCC[C@@H](C(F)(F)F)C2)C(c2ccc(F)cc2)c2c(C(=O)N3CCC[C@H]3C#N)nn(-c3ccccc3)c21 (single isomer, unassigned) [Compound I-464] | > 1000 | 1000 to 3000 | 1000 to 3000 |  | 
23 | CCN1C(=O)[C@H](NC(=O)c2cccc(C(F)(F)F)c2)[C@H](c2ccc(F)cc2)c2c(C(=O)N3[C@H](C#N)C[C@H]4C[C@H]43)nn([C@@H]3CCOC3)c21 (single isomer, unassigned) [Compound I-704] |  | ≤ 200 |  | 1000 to 3000 | 100 to 1000
24 | CCN1C(=O)[C@@H](NC(=O)c2cccc(C(F)(F)F)c2)[C@@H](c2ccc(F)cc2)c2c(CN(C#N)CCCN3CC4(COC4)C3)nn(-c3ccccc3)c21 [Compound I-577] | > 1000 | 200 to 1000 | 200 to 1000 |  | 
25 | CCN1C(=O)[C@@H](NC(=O)c2cccc(C(F)(F)F)c2)[C@@H](C2CC2)c2c(C(=O)N3CCC[C@H]3C#N)nn(C3CC3)c21 [Compound I-454] | ≤ 100 | 200 to 1000 | 1000 to 3000 |  | 
26 | CCN1C(=O)[C@@H](NC(=O)c2cccc(C(F)(F)F)c2)[C@@H](c2ccc(F)cc2)c2c(CN(C#N)CCCN3CCOCC3)nn(-c3ccccc3)c21 [Compound I-496] | ≤ 100 | ≤ 200 |  | ≤ 200 | 
27 | CCN1C(=O)[C@@H](NC(=O)c2nccc(C(F)(F)F)n2)[C@@H](c2ccc(F)cc2)c2c(CNC(=O)/C=C/C(=O)OC(C)(C)C)nn(-c3ccccc3)c21 [Compound I-408] | 100 to 1000 | ≤ 200 |  | ≤ 200 | 
28 | CCN1C(=O)[C@@H](NC(=O)c2cccc(C(F)(F)F)c2)[C@@H](c2ccc(F)cc2)c2c(C(=O)N3[C@H](C#N)C[C@H]4C[C@H]43)nn([C@H]3CCOC3)c21 (relative stereo) [Compound I-630, N-((4S*,5S*)-3-((1R,3S,5R)-3-cyano-2-azabicyclo[3.1.0]hexane-2-carbonyl)-7-ethyl-4-(4-fluorophenyl)-6-oxo-1-((S**)-tetrahydrofuran-3-yl)-4,5,6,7-tetrahydro-1H-pyrazolo[3,4-b]pyridin-5-yl)-3-(trifluoromethyl)benzamide] | ≤ 100 | ≤ 200 | ≤ 200 |  | 
29 | CCN1C(=O)[C@@H](NC(=O)c2cccc(C(F)(F)F)c2)[C@@H](C2CC2)c2c(C(=O)N(C)[C@@H](C)C#N)nn(C3CCOCC3)c21 [Compound I-549, (4S,5S)—N—((S)-1-cyanoethyl)-4-cyclopropyl-7-ethyl-N-methyl-6-oxo-1-(tetrahydro-2H-pyran-4-yl)-5-(3-(trifluoromethyl)benzamido)-4,5,6,7-tetrahydro-1H-pyrazolo[3,4-b]pyridine-3-carboxamide] | ≤ 100 | ≤ 200 | 200 to 1000 |  | 
30 | CCN1C(=O)[C@@H](NC(=O)c2cccc(C(F)(F)F)c2)[C@@H](c2ccc(F)cc2)c2c(C(=O)N(C)CC#N)nn(-c3ccccc3)c21 (racemic) [Compound I-398] |  | 1000 to 3000 | 1000 to 3000 |  | > 1000
31 | CCN1C(=O)[C@@H](NC(=O)c2cccc(C(F)(F)F)c2)[C@@H](c2ccc(F)cn2)c2c(C(=O)N3CCC[C@H]3C#N)nn(-c3ccccc3)c21 (mixture of isomers) [Compound I-409] | 100 to 1000 | ≤ 200 | 1000 to 3000 |  | 

Reference: patent publication US20250163057A1, “DCN-1 MODULATING COMPOUNDS AND METHODS OF USE THEREOF” (Cellarity, Inc., priority 2023, published 2025)
